From patent US12064437B2, “Methods for treating systemic lupus erythematosus and the use of biomarkers as a predictor of clinical sensitivity to therapies” (CELGENE CORPORATION, priority 2020, dated 2024)

System: subjects with active autoantibody-positive SLE
Test: Phase 2b study in SLE: improvement of ≥50% from baseline in CLASI activity score
Assay type: in vivo, human
Conditions: for percentage of subjects with improvement of ≥50% from baseline in CLASI activity score: baseline CLASI ≥8, Week 24
Procedure: The pharmacokinetics, pharmacodynamics (PD), efficacy, and safety of oral iberdomide ((S)-3-[4-({4-[(morpholin-4-yl)methyl]phenyl}methoxy)-1-oxo-1,3-dihydro-2H-isoindol-2-yl]piperidine-2,6-dione-hydrogen chloride (1/1)) were evaluated in a phase 2b study in subjects with active autoantibody-positive SLE.
Adult SLE patients (N=288) with a ≥6-month history of SLE and SLE Disease Activity Index (SLEDAI 2K) ≥6 were randomized to placebo (n=83) or iberdomide 0.15 mg QD (n=42), 0.3 mg QD (n=82), or 0.45 mg QD (n=81). Clinical response was determined by the SLE Responder Index 4 (SRI-4) at week 24 for all patients and within pre-specified biomarker-enriched subsets based on expression of Ikaros, Aiolos, the Type 1 IFN signature (IFI27, IFI44, IFI44L, RSAD2), and other gene modules measured from fingerstick blood collected at baseline (Modular Immune Profile Test, DxTerity Diagnostics, Inc.). The primary objective of the study was to evaluate the clinical efficacy of 3 doses of iberdomide (0.45 mg once per day [QD], 0.30 mg QD, or 0.15 mg QD) compared to placebo, for the treatment of active SLE using the SLE Responder Index at Week 24.
CLASI activity score at Week 24 was analyzed. Results for improvement of ≥50% from baseline in CLASI activity score at Week 24 were observed. Results are described as follows for overall subjects at each time point and for subgroups based on baseline characteristics and on mRNA and DNA expression as follows: […]

O=C1CC[C@H](N2Cc3c(OCc4ccc(CN5CCOCC5)cc4)cccc3C2=O)C(=O)N1 [iberdomide, (S)-3-[4-({4-[(morpholin-4-yl)methyl]phenyl}methoxy)-1-oxo-1,3-dihydro-2H-isoindol-2-yl]piperidine-2,6-dione-hydrogen chloride (1/1)]
improvement of ≥50% from baseline in CLASI activity score, stratified difference from placebo (0.45 mg QD, Week 8, ITT population using NRI): 14.3%
improvement of ≥50% from baseline in CLASI activity score, stratified difference from placebo (0.45 mg QD, Week 12, ITT population using NRI): 12.2%
improvement of ≥50% from baseline in CLASI activity score, stratified difference from placebo (0.45 mg QD, Week 16, ITT population using NRI): 18.2%
improvement of ≥50% from baseline in CLASI activity score, stratified difference from placebo (0.45 mg QD, Week 20, ITT population using NRI): 12.3%
percentage of subjects with improvement of ≥50% from baseline in CLASI activity score (IKZF3 high, 0.15 mg QD): 50.0%
percentage of subjects with improvement of ≥50% from baseline in CLASI activity score (IKZF3 high, 0.30 mg QD): 33.3%
percentage of subjects with improvement of ≥50% from baseline in CLASI activity score (IKZF3 high, 0.45 mg QD): 77.8%
percentage of subjects with improvement of ≥50% from baseline in CLASI activity score (Ikaros IFN module high, 0.15 mg QD): 54.5%
percentage of subjects with improvement of ≥50% from baseline in CLASI activity score (Ikaros IFN module high, 0.30 mg QD): 52.4%
percentage of subjects with improvement of ≥50% from baseline in CLASI activity score (Ikaros IFN module high, 0.45 mg QD): 63.6%
percentage of subjects with improvement of ≥50% from baseline in CLASI activity score (Type 1 IFN module high, 0.15 mg QD): 66.7%
percentage of subjects with improvement of ≥50% from baseline in CLASI activity score (Type 1 IFN module high, 0.30 mg QD): 52.4%
percentage of subjects with improvement of ≥50% from baseline in CLASI activity score (Type 1 IFN module high, 0.45 mg QD): 61.9%
improvement of ≥50% from baseline in CLASI activity score, stratified difference from placebo (baseline CLASI activity score ≥8, 0.15 mg QD, Week 16): 10.6%
improvement of ≥50% from baseline in CLASI activity score, stratified difference from placebo (baseline CLASI activity score ≥8, 0.15 mg QD, Week 20): 35.3%
improvement of ≥50% from baseline in CLASI activity score, stratified difference from placebo (baseline CLASI activity score ≥8, 0.30 mg QD, Week 8): 23.6%
improvement of ≥50% from baseline in CLASI activity score, stratified difference from placebo (baseline CLASI activity score ≥8, 0.30 mg QD, Week 16): 3.1
improvement of ≥50% from baseline in CLASI activity score, stratified difference from placebo (baseline CLASI activity score ≥8, 0.45 mg QD, Week 4): 32.0%
improvement of ≥50% from baseline in CLASI activity score, stratified difference from placebo (baseline CLASI activity score ≥8, 0.45 mg QD, Week 16): 9.4%
